Measurements: publication PMC3637861 (Journal of muscle research and cell motility, 2013)

Biological target: Recombinant chicken cardiac troponin C (cTnC) (Gallus gallus, UniProt P09860)
Assay: intrinsic tyrosine fluorescence quenching titration, hyperbolic plus linear fit
Type: binding

O=C(O[C@@H]1Cc2c(O)cc(O)cc2O[C@@H]1c1cc(O)c(O)c(O)c1)c1cc(O)c(O)c(O)c1 [EGCg]
Kd: 65 µM
